Measured values reported in US7985751B2, “Piperazine derivatives” (M's Science Corporation, priority 2005, dated 2011).
Where a name gives a salt, the structure may show the parent alone.

Tests used:
[1] = biological target: T1, σ2 receptors (Homo sapiens, UniProt Q5BJF2); assay: σ2 receptor binding assay ([3H]DTG displacement with σ1 masked by pentazocine, HEK-293 cell membranes); details: σ1 versus σ2 binding, result in words
T1 construct: incubating 50 μg of HEK-293 cell membranes with 10 nM [^3H]-DTG; endogenous in cells; host or cells: HEK-293
T1 sequence (Q5BJF2 whole entry): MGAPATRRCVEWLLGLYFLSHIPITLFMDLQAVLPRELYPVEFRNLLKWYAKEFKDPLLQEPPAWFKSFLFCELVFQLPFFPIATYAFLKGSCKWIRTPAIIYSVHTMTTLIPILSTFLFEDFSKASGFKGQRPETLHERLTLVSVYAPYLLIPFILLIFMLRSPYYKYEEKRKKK
Method: (§1) Sigma 1 (σ1) and sigma 2 (σ2) receptor binding assays are carried out in membranes from HEK-293 (Human Embryonic Kidney) cells.
(§2) Confluent HEK-293 cells are harvested in PBS/5 mM EDTA. They are centrifuged at 2000 rpm for 5 min and then washed two times in PBS. Cells are homogenized in 20 mM Tris-HCL (pH=7.5) containing 5 mM EDTA, 0.5 mM PMSF and 0.5 μg/ml leupeptin using a Dounce homogenizer and sonicated for 5 minutes.
Nuclear debris and intact cells are removed by centrifugation at 3000 rpm for 10 minutes at 4° C. […]
Proteins are determined using the Bio Rad Protein Assay Dye Reagent and the membranes are aliquoted and frozen at −80° C. […]
Total binding is determined by incubating 50 μg of HEK-293 cell membranes with 10 nM [^3H]-DTG (Perkin-Elmer, 58 Ci/mmol) in the presence of 10 μM pentazocine and assay buffer (50 mM Tris-HCl, pH=8.3) in a total volume of 200 μl. Non specific binding is determined in the presence of 10 μM unlabeled DTG. […] The filters are washed three times and the membrane-bound radioactivity is determined in a Microbeta scintillation counter. […]
(§3) Specific binding is determined by subtraction of non specific binding from total binding. […]

[2] = biological target: T2, σ1 receptors (Homo sapiens, UniProt Q99720); assay: σ1 receptor binding assay ((+)-[3H]pentazocine displacement, HEK-293 cell membranes); details: for affinity for sigma receptors, in particular sigma-1 receptors: result in words
T2 construct: incubating 50 μg of HEK-293 cell membranes with 10 nM (+)-[^3H]-pentazocine; endogenous in cells; host or cells: HEK-293
T2 sequence (Q99720 whole entry): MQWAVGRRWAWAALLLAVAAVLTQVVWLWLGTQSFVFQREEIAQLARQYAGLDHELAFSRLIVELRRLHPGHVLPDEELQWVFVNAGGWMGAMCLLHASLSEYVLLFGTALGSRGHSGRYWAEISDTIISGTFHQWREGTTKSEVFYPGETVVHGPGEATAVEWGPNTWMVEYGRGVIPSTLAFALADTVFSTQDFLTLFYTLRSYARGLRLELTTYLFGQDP
Method: as §1, §2
Nuclear debris and intact cells are removed by centrifugation at 3000 rpm for 10 minutes at 4° C. The supernatant is centrifuged at 12000 rpm for 30 minutes and the resulting pellet is resuspended in 25 mM Tris-HCL (pH=7.5), 25 mM Mg2Cl, 10% sucrose containing 0.5 mM PMSF, 2 mM AEBSF, 1 mM EDTA, 130 μM bestatin, 14 μM E-64, 1 μM leupeptin, and 0.3 mM aprotinin.
Proteins are determined using the Bio Rad Protein Assay Dye Reagent and the membranes are aliquoted and frozen at −80° C.
The binding assays are performed in 96-well plates.
σ1 receptors are labeled using the σ1 selective probe (+)-[^3H] Pentazocine (Bowen W D et al, Mol Neuropharmacol 3, 117-126, 1993).
Total binding is determined by incubating 50 μg of HEK-293 cell membranes with 10 nM (+)-[^3H]-pentazocine (Perkin-Elmer, 35 Ci/mmol) and assay buffer (50 mM Tris-HCl, pH=8.3) in a total volume of 200 μl. Non specific binding is determined in the presence of 10 μM unlabeled pentazocine. For competition experiments, 50 μl of displacing compound is added at 8 different concentrations. Incubations are carried out for 120 min at 37° C. Assays are terminated by dilution with ice-cold 10 mM Tris-HCl, pH=8.3 and vacuum filtration through glass fibers using a Skatron cell harvester from Molecular Devices. The filters are washed three times and the membrane-bound radioactivity is determined in a Microbeta scintillation counter.
Filters are soaked in 0.5% polyethyleneimine for 1 hour before use.
as §3

[3] = system: sigma receptor-mediated neck dystonia in rats; details: microinjection, Nakazawa M et al 1999; cited from earlier work

Structure (SMILES)	selectivity for σ1 receptor over σ2 receptor [1]	IC50 [2] [nM]	affinity for sigma receptors, in particular sigma-1 receptors [2]	induction of neck dystonia [3]
COc1cc(CCN2CCN(CCCc3ccccc3)CC2)cc(OC)c1OC.Cl [1-[2-(3,4,5-trimethoxyphenyl)ethyl]-4-(3-phenylpropyl)piperazine hydrochloride]	highly selective	< 300	high affinity	–
Fc1ccccc1CCN1CCN(CCCc2ccccc2)CC1 [Example 4, 1-[2-(2-Fluorophenyl)ethyl]-4-(3-phenylpropyl)piperazine dihydrochloride]	especially good	–	especially good	–
Cc1ccccc1NC(=N)Nc1ccccc1C [DTG, 1,3-di-2-tolyl-guanidine]	–	–	–	induced neck dystonia
COc1ccc(CCN2CCN(CCCc3ccccc3)CC2)cc1OC [SA-4503, 1-[2-(3,4-dimethoxyphenyl)ethyl]-4-(3-phenylpropyl)piperazine]	–	–	–	no effect
